Values joined by “and” are separate entries in the source; they are usually repeats but may differ in a detail not shown here. Equal values may be shown once. Read-outs that look alike come from different tables or passages of the source.
Legend:
[1] = biological target: T1, DAO (Homo sapiens, UniProt P19801); experiment: Amine oxidase inhibition profile, DAO; type: biochemical
T1 sequence (P19801 20-751): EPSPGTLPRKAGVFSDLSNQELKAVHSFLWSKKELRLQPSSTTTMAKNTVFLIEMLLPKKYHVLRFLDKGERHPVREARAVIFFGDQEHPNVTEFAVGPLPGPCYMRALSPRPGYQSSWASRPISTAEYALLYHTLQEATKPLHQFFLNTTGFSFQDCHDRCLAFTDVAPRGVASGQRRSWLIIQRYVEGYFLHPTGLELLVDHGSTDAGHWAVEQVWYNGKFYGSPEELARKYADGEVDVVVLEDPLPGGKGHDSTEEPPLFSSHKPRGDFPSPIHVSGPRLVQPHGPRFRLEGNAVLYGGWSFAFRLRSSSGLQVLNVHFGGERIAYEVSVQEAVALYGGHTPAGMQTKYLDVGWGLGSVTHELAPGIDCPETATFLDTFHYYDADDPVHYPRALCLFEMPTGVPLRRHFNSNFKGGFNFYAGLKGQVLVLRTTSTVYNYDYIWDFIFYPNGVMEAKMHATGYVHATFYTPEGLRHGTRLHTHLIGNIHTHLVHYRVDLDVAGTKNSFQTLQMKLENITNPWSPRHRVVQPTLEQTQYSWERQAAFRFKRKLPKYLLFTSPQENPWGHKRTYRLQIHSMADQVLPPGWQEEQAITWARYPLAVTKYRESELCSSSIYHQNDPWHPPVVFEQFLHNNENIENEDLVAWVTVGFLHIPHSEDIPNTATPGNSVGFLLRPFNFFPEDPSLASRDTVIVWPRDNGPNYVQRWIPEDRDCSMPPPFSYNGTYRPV
Source text: (§1) Supplem entary Materi als:
(§2) Supplementary Table S1: Amine oxidase inhibition profile of PXS -4787, PXS-6302 and
(§3) Supplementary Table S2: Perm eability profile of PXS -6302.

[2] = biological target: T2, Human Recombinant SSAO (Homo sapiens, UniProt Q16853); experiment: Amine oxidase inhibition profile, SSAO; type: biochemical
T2 sequence (Q16853 1-763): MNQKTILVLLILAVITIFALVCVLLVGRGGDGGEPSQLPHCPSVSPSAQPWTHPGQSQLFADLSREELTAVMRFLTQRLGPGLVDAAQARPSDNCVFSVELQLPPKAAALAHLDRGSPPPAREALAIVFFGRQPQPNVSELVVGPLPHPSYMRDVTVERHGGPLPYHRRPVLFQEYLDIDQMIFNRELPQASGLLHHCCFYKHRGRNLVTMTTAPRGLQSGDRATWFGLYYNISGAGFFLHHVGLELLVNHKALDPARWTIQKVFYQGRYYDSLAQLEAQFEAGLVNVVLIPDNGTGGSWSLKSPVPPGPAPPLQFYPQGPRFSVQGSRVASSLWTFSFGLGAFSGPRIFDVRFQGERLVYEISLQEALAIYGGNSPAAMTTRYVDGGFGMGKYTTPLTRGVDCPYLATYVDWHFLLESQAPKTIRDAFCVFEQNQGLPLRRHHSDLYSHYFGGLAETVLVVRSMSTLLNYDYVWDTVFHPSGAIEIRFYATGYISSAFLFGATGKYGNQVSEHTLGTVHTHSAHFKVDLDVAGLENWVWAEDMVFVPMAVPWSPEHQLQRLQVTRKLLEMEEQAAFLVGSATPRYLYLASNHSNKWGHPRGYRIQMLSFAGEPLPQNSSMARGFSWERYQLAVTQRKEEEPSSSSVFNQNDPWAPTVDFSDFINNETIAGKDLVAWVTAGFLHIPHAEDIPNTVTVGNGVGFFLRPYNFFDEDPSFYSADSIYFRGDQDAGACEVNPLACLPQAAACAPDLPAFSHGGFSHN
Source text: as §1, §2, §3

[3] = system: full-thickness excision injury scar; experiment: Porcine excision injury model; type: in vivo, pigs
[4] = biological target: Histamine H1 (Homo sapiens, UniProt P35367); experiment: Eurofins panel 239610; type: binding
Chain of Histamine H1 (P35367 whole entry): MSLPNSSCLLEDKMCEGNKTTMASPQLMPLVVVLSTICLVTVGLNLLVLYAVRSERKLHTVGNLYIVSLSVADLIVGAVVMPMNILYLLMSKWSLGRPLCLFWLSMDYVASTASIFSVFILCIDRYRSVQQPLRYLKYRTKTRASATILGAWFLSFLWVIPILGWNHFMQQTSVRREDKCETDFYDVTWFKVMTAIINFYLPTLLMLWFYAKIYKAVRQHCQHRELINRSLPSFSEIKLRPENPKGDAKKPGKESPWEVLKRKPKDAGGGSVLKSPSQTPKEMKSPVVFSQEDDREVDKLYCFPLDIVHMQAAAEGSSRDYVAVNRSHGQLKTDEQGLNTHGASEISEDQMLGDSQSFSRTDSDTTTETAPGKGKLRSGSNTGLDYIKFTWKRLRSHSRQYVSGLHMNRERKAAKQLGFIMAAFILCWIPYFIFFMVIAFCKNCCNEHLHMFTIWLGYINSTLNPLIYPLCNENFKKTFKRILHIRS

[5] = read-out: Recombinant SSAO IC50

Row | Compound | Recombinant DAO pIC50 [1] | IC50 ([1]; read-out: Recombinant DAO IC50) | Recombinant SSAO pIC50 [2] | IC50 [2, 5] | Surgeon score dose response ([3]; 0.5 %) | Surgeon score dose response ([3]; 3%) | Lox enzyme activity in scars ([3]; 3% cream, 24 hours after final application) | scar appearance rank (0 best to 3 worst) by blinded plastic surgeons ([3]; 3% cream, treatment commenced at 3 weeks post-injury, analysed at 12 weeks) | LOX activity S/N ([3]; PXS-4787, individual samples) | inhibition at 10 µM ([4]; 10 µM) | IC50 [1] | Excision injury scar scores (average score of all surgeons for each wound/tx group) ([3]; 3%) | scar score 1–10 by blinded plastic surgeons ([3]; 3% cream once daily, 12 weeks) | LOX activity in scar tissue ([3]; 24 h after the final dose, once daily cream) | S/N ration LOX activity (Fig. 8A) ([3]; porcine scar 24 h after final daily application, individual samples) | inhibition at 30 µM ([4]; read-out: % Inh.) | IC50 [2]
1 | N#CCCN [BAPN, β-aminoproprionitrile, reference compound] | < 4.5 | > 30 µM | < 4 | > 100 µM | – | – | – | – | – | – | – | – | – | – | – | – | –
2 | NC/C=C(\F)CS(=O)(=O)c1ccccc1 [PXS-4787] | – | > 100 µM | – | > 100 µM | 16 and 20 and 14 | 11 and 10 and 12 and 9 | significantly inhibited | significant improvements in scar appearance | 2.7 and 1.5 and 1.8 and 1.4 and 1.3 | 14% | – | – | – | – | – | – | –
3 | NC/C=C(\F)C(F)(F)S(=O)(=O)c1ccccc1 [PXS-6302] | – | – | – | – | – | – | – | – | – | – | > 30 µM | 9 and 6.667 and 6 and 5.667 and 5 and 6.333 and 9.667 and 9.333 | significantly higher scores | significantly reduced | 1.073 and 0.9572 and 1.114 and 1.845 and 1.506 | 10% | > 30 µM
